What was measured:
Pemetrexed = compound: Nc1nc2[nH]cc(CCc3ccc(C(=O)N[C@@H](CCC(=O)O)C(=O)O)cc3)c2c(=O)[nH]1 [Pemetrexed]; assay: relative viability (nuclei count vs DMSO), 5 days (fraction); higher = more cells survive
How it was run: (§1)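 In 1536-well plates, lung cancer cell lines rested overnight at 37 °C before five library-drug doses (not always all listed), √10 apart, were pinned onto vehicle-anchored plates. Nuclei were counted with MetaXpress from 4× Hoechst images taken after 5 days without medium change. Viability compares treated-well with vehicle-well nuclei as a median over plates, and plates needed control CV below 25% plus at least one doubling to pass.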

Idelalisib = compound: CC[C@H](Nc1ncnc2[nH]cnc12)c1nc2cccc(F)c2c(=O)n1-c1ccccc1 [Idelalisib]; assay: as above
How it was run: as §1

| Cell Line | relative viability (Pemetrexed; 0.002 µM) | relative viability (Pemetrexed; 0.006325 µM) | relative viability (Pemetrexed; 0.02 µM) | relative viability (Pemetrexed; 0.06325 µM) | relative viability (Pemetrexed; 0.2 µM) | relative viability (Pemetrexed; 0.2 µM, anchor plate) | relative viability (Idelalisib; 0.04 µM) | relative viability (Idelalisib; 0.1265 µM) | relative viability (Idelalisib; 0.4 µM) | relative viability (Idelalisib; 1.265 µM) | relative viability (Idelalisib; 4 µM) |
| --- | --- | --- | --- | --- | --- | --- | --- | --- | --- | --- | --- |
| LCLC-103H | 0.89 | 1.01 | 1.01 | 1.02 | 0.935 | 0.477 | 1.12 | 0.979 | 0.822 | 1.09 | 0.91 |
| NCI-H1650 | 0.788 | 0.89 | 1.21 | 0.633 | 0.341 | 0.367 | 0.984 | 0.907 | 0.882 | 0.91 | 0.815 |
| LK-2 | 0.854 | 0.925 | 1.06 | 0.868 | 0.685 | 0.284 | 1.22 | 1 | – | 1.06 | 0.87 |
| NCI-H2342 | 0.804 | 0.95 | 1.03 | 1.02 | 1.08 | 0.769 | 1.06 | 1.09 | 0.907 | 1.03 | 0.882 |
| NCI-H522 | 1.18 | 0.999 | 0.916 | 0.868 | 1.03 | 1.03 | 1.13 | 0.865 | 0.916 | 0.997 | 0.974 |
| EBC-1 | 0.951 | 0.951 | 1.09 | 1.01 | 0.735 | – | 1 | 1.1 | 0.986 | 0.965 | 0.88 |
| ChaGo-K-1 | 1.05 | 0.942 | 0.98 | 0.418 | 0.312 | 0.261 | 1.09 | 0.914 | 0.946 | 1.02 | 0.992 |
| HCC-78 | 0.674 | 0.98 | 0.877 | 0.43 | – | – | 1.05 | 0.923 | 0.811 | 1.01 | 0.729 |
| NCI-H1666 | 1.05 | 1.02 | 0.999 | 1.02 | 0.796 | 0.834 | 1.03 | 1.04 | 0.911 | 0.981 | 0.902 |
| IA-LM | 0.838 | 0.937 | 0.959 | 0.988 | 0.865 | – | 0.975 | 1.05 | 1.02 | 1.23 | 0.955 |
| EKVX | 0.854 | 0.984 | 1.03 | 0.995 | 0.734 | 0.404 | 0.925 | 1.01 | 0.849 | 0.854 | 0.8 |
| COR-L 105 | 0.947 | 0.896 | 1.14 | 0.883 | 0.978 | 1.12 | 1.03 | 0.997 | 0.802 | 0.976 | 0.752 |
| NCI-H322M | 1.09 | 0.934 | 0.98 | 0.983 | 0.741 | 0.634 | 1.08 | 1.03 | 0.808 | 0.849 | 0.873 |
| HARA | 0.944 | 1.05 | 1.12 | 0.904 | 0.225 | 0.241 | 1.02 | 1.05 | 0.783 | 1.23 | 0.794 |
| NCI-H1703 | 0.917 | 0.871 | 1.39 | 1.06 | 0.92 | – | 0.916 | 1.07 | 0.809 | 0.832 | 0.509 |
| NCI-H2023 | 0.762 | 0.87 | 1.11 | 0.802 | 0.292 | 0.249 | 1.05 | 0.973 | 0.792 | 0.818 | 0.968 |

| Cell Line | relative viability (Pemetrexed; 0.002 µM) | relative viability (Pemetrexed; 0.006325 µM) | relative viability (Pemetrexed; 0.02 µM) | relative viability (Pemetrexed; 0.06325 µM) | relative viability (Pemetrexed; 0.2 µM) | relative viability (Pemetrexed; 0.2 µM, anchor plate) | relative viability (Idelalisib; 0.04 µM) | relative viability (Idelalisib; 0.1265 µM) | relative viability (Idelalisib; 0.4 µM) | relative viability (Idelalisib; 1.265 µM) | relative viability (Idelalisib; 4 µM) |
| --- | --- | --- | --- | --- | --- | --- | --- | --- | --- | --- | --- |
| NCI-H1437 | 0.741 | 0.974 | 0.998 | 0.704 | 0.493 | 0.319 | 1.01 | 0.995 | 0.965 | 1.12 | 1.05 |
| BEN | 0.964 | 1 | 1.06 | 0.947 | 0.769 | 0.829 | 1.05 | 0.883 | 0.975 | 0.968 | 0.875 |
| LXF-289 | 0.938 | 0.999 | 1.04 | 1.02 | 0.939 | 0.905 | 1.05 | 1.07 | 1 | 1.07 | 1.04 |
| NCI-H358 | 0.958 | 0.925 | 0.864 | 0.293 | 0.24 | 0.176 | 1.04 | 0.864 | 0.794 | 0.901 | 0.861 |
| A549 | 0.938 | 0.948 | 1.09 | 0.973 | 1.01 | – | 1.01 | 0.956 | 0.747 | 1.04 | 0.825 |
| NCI-H1993 | 0.866 | 0.995 | 0.962 | 0.896 | 0.734 | 0.592 | 1.1 | 1.12 | 0.804 | 0.917 | 0.7 |
| NCI-H727 | 0.844 | 0.931 | 0.899 | 0.958 | 0.899 | – | 1.07 | 1.16 | 0.715 | 0.987 | 0.887 |
| LOU-NH91 | 0.948 | 1 | 1.06 | 0.678 | 0.521 | 0.388 | 1.07 | 0.882 | 0.878 | 0.762 | 0.932 |
| NCI-H1975 | 0.698 | 0.938 | 1.01 | 0.87 | 0.54 | 0.291 | 1.02 | 1.04 | 0.864 | 0.921 | 0.737 |
| PC-3 [JPC-3] | 0.882 | 1.1 | 1.06 | 1.04 | 0.964 | 1.16 | 1.19 | 1.05 | 1.03 | 1.02 | 0.915 |
| NCI-H2126 | 0.974 | 0.992 | 1.04 | 1 | 0.91 | 0.684 | 1.02 | 1.08 | 0.837 | 1.03 | 0.931 |
| LU99A | 0.869 | 0.92 | 1.07 | 1.08 | – | – | 1.08 | 1.08 | 0.814 | 1.14 | 1.05 |
| NCI-H23 | 0.893 | 0.987 | 1.18 | 0.91 | 0.905 | 0.714 | 1.15 | 1.07 | 0.69 | 0.713 | 1 |
| PC-14 | 0.975 | 1.01 | 1.08 | 0.602 | 0.142 | 0.136 | 1.07 | 1.05 | 0.951 | 0.922 | 0.959 |
| HCC-44 | 0.839 | 0.989 | 1.06 | 0.995 | 0.796 | 0.647 | 1.04 | 0.953 | 0.98 | 1.08 | 1.13 |

Source: the supplement of paper PMC10307832
